According to ChEMBL document CHEMBL5244260, “Aldose reductase and protein tyrosine phosphatase 1B inhibitors as a promising therapeutic approach for diabetes mellitus” (Eur J Med Chem, 2020):
Each block holds one molecule with its values, some of them ahead of it.

Experiments:
[1] = biological target: T1, Tyrosine-protein phosphatase non-receptor type 1 (Homo sapiens, UniProt P18031); assay: Inhibition of PTP1B (unknown origin) using DiFMUP as substrate incubated for 30 min by fluorescence based microplate reader assay
T1 sequence (P18031 whole entry): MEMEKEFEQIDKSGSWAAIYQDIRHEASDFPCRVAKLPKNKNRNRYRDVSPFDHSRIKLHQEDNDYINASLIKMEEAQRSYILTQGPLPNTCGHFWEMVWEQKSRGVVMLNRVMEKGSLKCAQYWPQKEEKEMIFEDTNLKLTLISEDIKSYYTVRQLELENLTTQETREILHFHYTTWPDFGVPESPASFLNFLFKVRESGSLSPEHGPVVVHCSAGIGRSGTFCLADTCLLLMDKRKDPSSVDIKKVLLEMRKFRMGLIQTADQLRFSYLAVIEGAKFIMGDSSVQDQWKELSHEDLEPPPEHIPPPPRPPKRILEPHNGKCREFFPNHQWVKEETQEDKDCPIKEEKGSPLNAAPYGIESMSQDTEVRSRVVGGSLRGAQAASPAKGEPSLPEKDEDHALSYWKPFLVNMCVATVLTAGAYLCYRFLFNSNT

[2] = biological target: T1, Tyrosine-protein phosphatase non-receptor type 1; assay: Inhibition of human recombinant GST-tagged PTP1B (1 to 321 residues) expressed in Escherichia coli using pNPP as substrate preincubated for 10 mins followed by substrate addition and measured after 30 mins by microplate reader assay
[3] = biological target: T2, Prostaglandin G/H synthase 2 (Homo sapiens, UniProt P35354); assay: Inhibition of COX-2 (unknown origin) by spectrophotometer assay
T2 sequence (P35354 whole entry): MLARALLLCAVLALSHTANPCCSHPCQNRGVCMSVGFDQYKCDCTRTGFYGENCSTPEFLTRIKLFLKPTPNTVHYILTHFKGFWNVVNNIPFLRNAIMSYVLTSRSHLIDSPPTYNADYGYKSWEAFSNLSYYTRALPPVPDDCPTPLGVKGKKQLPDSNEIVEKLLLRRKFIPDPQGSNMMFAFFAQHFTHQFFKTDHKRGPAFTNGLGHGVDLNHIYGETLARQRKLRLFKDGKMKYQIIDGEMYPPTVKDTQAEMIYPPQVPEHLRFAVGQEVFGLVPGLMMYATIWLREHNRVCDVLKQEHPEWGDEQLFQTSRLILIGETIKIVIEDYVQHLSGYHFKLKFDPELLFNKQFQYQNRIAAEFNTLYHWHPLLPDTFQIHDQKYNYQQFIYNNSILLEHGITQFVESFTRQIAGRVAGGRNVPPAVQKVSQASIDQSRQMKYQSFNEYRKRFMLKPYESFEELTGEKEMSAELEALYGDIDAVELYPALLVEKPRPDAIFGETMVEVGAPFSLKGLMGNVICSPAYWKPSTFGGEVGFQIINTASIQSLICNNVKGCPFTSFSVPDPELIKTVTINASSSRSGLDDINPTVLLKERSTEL

[4] = biological target: Alpha-glucosidase (Saccharomyces cerevisiae S288c, UniProt P53341+P38158+P07265); assay: Inhibition of yeast alpha-glucosidase using PNP-G as substrate preincubated for 10 mins followed by substrate addition by spectrophotometer microplate reader assay; type: protein assay
[5] = Inhibition of ALR2 in Wistar rat lens using D,L-glyceraldehyde as substrate preincubated for 1 min in presence of NADPH followed by substrate addition and measured after 4 mins by spectrophotometric assay; type: tissue-based
[6] = biological target: T3, Peroxisome proliferator-activated receptor gamma (Homo sapiens, UniProt P37231); assay: Agonist activity at Gal4-PPARgamma (unknown origin) transfected in HCT-116 cells incubated for 24 hrs by luciferase reporter assay; type: cell-based
T3 sequence (P37231 whole entry): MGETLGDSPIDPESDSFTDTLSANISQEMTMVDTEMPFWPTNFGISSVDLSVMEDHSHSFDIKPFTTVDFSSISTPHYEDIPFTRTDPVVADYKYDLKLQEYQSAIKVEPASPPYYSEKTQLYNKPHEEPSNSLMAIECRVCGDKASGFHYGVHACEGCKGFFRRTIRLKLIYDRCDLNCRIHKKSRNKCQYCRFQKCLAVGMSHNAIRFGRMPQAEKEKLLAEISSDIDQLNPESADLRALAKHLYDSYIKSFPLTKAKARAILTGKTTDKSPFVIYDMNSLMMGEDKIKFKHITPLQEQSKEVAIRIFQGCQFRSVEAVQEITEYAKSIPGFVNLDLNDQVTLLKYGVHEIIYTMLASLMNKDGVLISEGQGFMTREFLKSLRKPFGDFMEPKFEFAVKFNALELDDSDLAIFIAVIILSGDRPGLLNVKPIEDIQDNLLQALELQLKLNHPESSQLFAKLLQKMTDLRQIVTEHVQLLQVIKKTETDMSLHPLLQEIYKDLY

[7] = Inhibition of ALR2 in rabbit lens using D,L-glyceraldehyde as substrate preincubated for 1 min in presence of NADPH followed by substrate addition and measured after 4 mins by spectrophotometric assay; type: tissue-based, Oryctolagus cuniculus
[8] = test system: Mus musculus; assay: Hypoglycemic activity in alloxan monohydrate induced diabetic model of BALB/c mouse assessed as decrease in glucose level at 10 mg/kg,po measured upto 8 hrs by glucometer; type: functional; design: scale not given: the % may be the effect or the level left
[9] = biological target: Aldo-keto reductase family 1 member B1 (Homo sapiens, UniProt P15121); assay: Inhibition of ALR2 (unknown origin) using D,L-glyceraldehyde as substrate incubated for 10 mins in presence of NADPH by UV-spectrophotometric assay
[10] = biological target: T1, Tyrosine-protein phosphatase non-receptor type 1; assay: Inhibition of human recombinant PTP1B using pNPP as substrate incubated for 40 min
[11] = biological target: T1, Tyrosine-protein phosphatase non-receptor type 1; assay: Inhibition of PTP1B (unknown origin) using pNPP as substrate
[12] = organism: Homo sapiens; assay: Selectivity ratio of IC50 for PTP1B (unknown origin) to IC50 for TCPTP (unknown origin)
[13] = biological target: T1, Tyrosine-protein phosphatase non-receptor type 1; assay: Inhibition of human recombinant GST-tagged PTP1B (1 to 321 residues) expressed in Escherichia coli using pNPP as substrate by spectrophotometer assay
[14] = biological target: T1, Tyrosine-protein phosphatase non-receptor type 1; assay: Inhibition of human PTP1B using pNPP as substrate incubated for 30 min by UV-Visible spectrophotometer assay

SMILES: O=c1c2cc(O)c(O)cc2oc2cc(OCc3cccc(Cl)c3F)cc(O)c12
IC50 [1]: 0.6 µM

SMILES: O=C1NC(=O)C2(CCCCC2)N1S(=O)(=O)c1ccc(Cl)s1
Activity [8]: 79%
IC50 [9]: 0.47 µM

SMILES: O=C(NCCCN1C[C@@H](O)[C@H](O)[C@H]1CO)c1ccc([N+](=O)[O-])cc1
IC50 [10]: 31 µM

SMILES: O=C(c1ccccc1)C(Cc1ccc2cc(Br)c(C(F)(F)P(=O)(O)O)cc2c1)(c1ccc2cc(C(F)(F)P(=O)(O)O)c(Br)cc2c1)n1nnc2ccccc21 (centres undefined)
IC50 [11]: 0.005 µM
Ratio IC50 [12]: 116

SMILES: C[C@@]12CCC[C@](C)(C(=O)O)[C@H]1CCc1cc(OCC(=O)Oc3ccccc3C(=O)O)ccc12
IC50 [14]: 2.9 µM

Second part, the molecule after the results:

IC50 [2]: 17.8 µM
IC50 [3]: 2.81 µM
IC50 [4]: 0.11 µM
SMILES: CC(=O)c1cc2cc(-c3cccc(Cl)c3)oc2cc1O

IC50 [5]: 0.46 µM
EC50 [6]: > 47.4 µM
SMILES: O=C(O)Cn1ccc2cc(OCc3ccccc3)ccc21

IC50 [7]: 7 µM
SMILES: O=C(O)Cn1ccc2ccccc21

IC50 [13]: 2.9 µM
SMILES: O=C1/C(=C/c2ccc(-c3ccccc3)cc2)NC(=S)N1c1ccccc1
